Patent publication US8846658B2, “Oxazine derivatives and their use in the treatment of neurological disorders” (Novartis AG, priority 2009, dated 2014)
Structures can show the parent of a compound that is named as a salt.

Experiment: Test 4: Inhibition of cellular release of amyloid peptide 1-40
Format: cell-based, Chinese hamster
Conditions: Cricetulus griseus; Test 4, CHO cells transfected with APP, 24 hours with test compound, amyloid peptide 1-40 in supernatant; read-out: Bace IC50
Protocol: Test 4: Inhibition of Cellular Release of Amyloid Peptide 1-40
Chinese hamster ovary cells are transfected with the gene for amyloid precursor protein. The cells are plated at a density of 8000 cells/well into 96-well microtiter plates and cultivated for 24 hours in DMEM cell culture medium containing 10% FCS. The test compound is added to the cells at various concentrations, and the cells are cultivated for 24 hours in the presence of the test compound. The supernatants are collected, and the concentration of amyloid peptide 1-40 is determined using state of the art immunoassay techniques, for example sandwich ELISA, homogenous time-resolved fluorescence (HTRF) immunoassay, or electro-chemiluminescence immunoassay.

| IC50 | Structure (SMILES) |
| --- | --- |
| 17 nM | C[C@@]1(c2cccc(NC(=O)c3ccc(Br)cn3)c2)COCC(N)=N1 [Example 3, 5-Bromo-pyridine-2-carboxylic acid [3-((R)-5-amino-3-methyl-3,6-dihydro-2H-[1,4]oxazin-3-yl)-phenyl]-amide hydrochloride] |
| 4 nM | Cc1cc(Br)cnc1C(=O)Nc1ccc(F)c(C2(C)COCC(N)=N2)c1 (stereo not shown) [Example 64] |
| 6 nM | Cc1cc(C#N)cnc1C(=O)Nc1ccc(F)c([C@]2(C(F)F)COCC(N)=N2)c1 [Example 144, 5-Cyano-3-methyl-pyridine-2-carboxylic acid [3-((R)-5-amino-3-difluoromethyl-3,6-dihydro-2H-[1,4]oxazin-3-yl)-4-fluoro-phenyl]-amide] |
| 100 nM | NC1=NC(c2cc(NC(=O)c3ccc(Br)cn3)ccc2F)(C(F)(F)F)CCOC1 (stereo not shown) [Example 99, 5-Bromo-pyridine-2-carboxylic acid [3-(3-amino-5-trifluoromethyl-2,5,6,7-tetrahydro-[1,4]oxazepin-5-yl)-4-fluoro-phenyl]-amide hydrochloride] |
| 1 nM | CC#CCOc1cnc(C(=O)Nc2ccc(F)c([C@]3(C(F)F)COCC(N)=N3)c2)cn1 [Example 164] |
| 4 nM | Cl.[2H]c1nc(C(=O)Nc2ccc(F)c([C@]3(C(F)F)COCC(N)=N3)c2)c(C([2H])([2H])[2H])c([2H])c1Br [Example 116, 5-Bromo-4,6-dideutero-3-trideuteromethyl-pyridine-2-carboxylic acid [3-((R)-5-amino-3-difluoromethyl-3,6-dihydro-2H-[1,4]oxazin-3-yl)-4-fluoro-phenyl]-amide hydrochloride] |
| 8 nM | [2H]c1nc(C(=O)Nc2ccc(F)c([C@]3(C(F)F)COCC(N)=N3)c2)c(C([2H])([2H])[2H])c([2H])c1C#N [Example 147, 5-Cyano-4,6-dideutero-3-trideuteromethyl-pyridine-2-carboxylic acid [3-((R)-5-amino-3-difluoromethyl-3,6-dihydro-2H-[1,4]oxazin-3-yl)-4-fluoro-phenyl]-amide] |
| 7 nM | N#Cc1ccc(C(=O)Nc2ccc(F)c([C@]3(C(F)F)COCC(N)=N3)c2)nc1 [Example 112, 5-Cyano-pyridine-2-carboxylic acid [3-((R)-5-amino-3-difluoromethyl-3,6-dihydro-2H-[1,4]oxazin-3-yl)-4-fluoro-phenyl]-amide hydrochloride] |
| 4 nM | C[C@@]1(c2cc(NC(=O)c3ncc(Br)cn3)ccc2F)CO[C@@](C)(C(F)(F)F)C(N)=N1 [Example 71, 5-Bromo-pyrimidine-2-carboxylic acid [3-((3R,6R)-6-amino-3,6-dimethyl-6-trifluoromethyl-3,6-dihydro-2H-[1,4]oxazin-3-yl)-4-fluoro-phenyl]-amide hydrochloride] |
| 4 nM | COc1cnc(C(=O)Nc2ccc(F)c([C@]3(C(F)F)COCC(N)=N3)c2)c(N)n1 [Example 175] |
